Data reported in the NIST ThermoML archive (doi:10.1021/je034162x).

Settings: 101.33 kPa, Liquid, Hot wire method

Cc1cccc(C)c1C [1,2,3-trimethylbenzene]
Settings | thermal conductivity [W/m/K] | thermal diffusivity [m2/s]
257.62 K | 0.1341 | –
257.83 K | 0.134 | –
257.99 K | 0.134 | –
258.45 K | – | 8.6e-08
259 K | – | 8.55e-08
259.4 K | – | 8.56e-08
276.36 K | 0.1312 | –
276.58 K | 0.1312 | –
276.73 K | 0.1311 | –
277.15 K | – | 8.25e-08
277.71 K | – | 8.21e-08
278.1 K | – | 8.2e-08
283.35 K | 0.1303 | –
283.57 K | 0.1302 | –
283.74 K | 0.1302 | –
284.17 K | – | 8.15e-08
284.73 K | – | 8.14e-08
285.14 K | – | 8.15e-08
295.58 K | 0.1281 | –
295.81 K | 0.1279 | –
295.99 K | 0.1279 | –
296.43 K | – | 8.04e-08
297.01 K | – | 8.01e-08
297.45 K | – | 8.04e-08
312.79 K | 0.1252 | –
313.04 K | 0.1252 | –
313.21 K | 0.1251 | –
313.65 K | – | 7.79e-08
314.26 K | – | 7.81e-08
314.68 K | – | 7.78e-08
330.74 K | 0.1218 | –
330.99 K | 0.1218 | –
331.17 K | 0.1217 | –
331.59 K | – | 7.49e-08
332.23 K | – | 7.53e-08
332.65 K | – | 7.51e-08

Cc1ccc(C)c(C)c1 [1,2,4-trimethylbenzene]
Settings | thermal conductivity [W/m/K] | thermal diffusivity [m2/s]
257.58 K | 0.1345 | –
257.79 K | 0.1344 | –
257.93 K | 0.1344 | –
258.32 K | – | 8.89e-08
258.85 K | – | 8.91e-08
259.23 K | – | 8.92e-08
276.33 K | 0.1314 | –
276.54 K | 0.1313 | –
276.69 K | 0.1312 | –
277.09 K | – | 8.61e-08
277.61 K | – | 8.58e-08
277.99 K | – | 8.6e-08
283.32 K | 0.1301 | –
283.54 K | 0.13 | –
283.68 K | 0.1299 | –
284.07 K | – | 8.48e-08
284.63 K | – | 8.52e-08
284.98 K | – | 8.47e-08
295.54 K | 0.1277 | –
295.76 K | 0.1277 | –
295.91 K | 0.1275 | –
296.3 K | – | 8.26e-08
296.84 K | – | 8.28e-08
297.21 K | – | 8.25e-08
312.75 K | 0.1244 | –
312.98 K | 0.1242 | –
313.13 K | 0.1241 | –
313.53 K | – | 8e-08
314.08 K | – | 8e-08
314.44 K | – | 7.96e-08
330.69 K | 0.1205 | –
330.93 K | 0.1205 | –
331.09 K | 0.1204 | –
331.46 K | – | 7.65e-08
332.04 K | – | 7.69e-08
332.43 K | – | 7.68e-08

Cc1ccccc1C [1,2-dimethylbenzene]
Settings | thermal conductivity [W/m/K] | thermal diffusivity [m2/s]
257.75 K | 0.1368 | –
257.96 K | 0.1369 | –
258.1 K | 0.1368 | –
258.47 K | – | 9.16e-08
259 K | – | 9.21e-08
259.35 K | – | 9.19e-08
277.07 K | 0.1334 | –
277.27 K | 0.1333 | –
277.42 K | 0.1333 | –
277.79 K | – | 8.78e-08
278.28 K | – | 8.75e-08
278.66 K | – | 8.79e-08
295.56 K | 0.1296 | –
295.78 K | 0.1296 | –
295.91 K | 0.1294 | –
296.29 K | – | 8.46e-08
296.81 K | – | 8.48e-08
297.15 K | – | 8.42e-08
312.07 K | 0.1259 | –
312.29 K | 0.1258 | –
312.44 K | 0.1257 | –
312.82 K | – | 8.18e-08
313.34 K | – | 8.17e-08
313.7 K | – | 8.15e-08
328.72 K | 0.1222 | –
328.94 K | 0.122 | –
329.09 K | 0.1219 | –
329.45 K | – | 7.83e-08
329.98 K | – | 7.83e-08
330.35 K | – | 7.81e-08

Cc1cc(C)cc(C)c1 [1,3,5-trimethylbenzene]
Settings | thermal conductivity [W/m/K] | thermal diffusivity [m2/s]
258.66 K | 0.1434 | –
258.83 K | 0.1434 | –
258.95 K | 0.1433 | –
259.23 K | – | 9.77e-08
259.67 K | – | 9.83e-08
259.96 K | – | 9.82e-08
276.88 K | 0.14 | –
277.04 K | 0.1398 | –
277.16 K | 0.1398 | –
277.47 K | – | 9.49e-08
277.87 K | – | 9.44e-08
278.16 K | – | 9.45e-08
296.36 K | 0.1358 | –
296.53 K | 0.1356 | –
296.66 K | 0.1356 | –
296.93 K | – | 8.99e-08
297.35 K | – | 9.01e-08
297.65 K | – | 9.02e-08
313.44 K | 0.1319 | –
313.6 K | 0.1317 | –
313.73 K | 0.1317 | –
314.03 K | – | 8.71e-08
314.41 K | – | 8.63e-08
314.7 K | – | 8.63e-08
331.99 K | 0.1274 | –
332.16 K | 0.1274 | –
332.28 K | 0.1272 | –
332.56 K | – | 8.28e-08
332.96 K | – | 8.25e-08
333.24 K | – | 8.21e-08

C1=CCCC=C1 [1,3-cyclohexadiene]
Settings | thermal conductivity [W/m/K] | thermal diffusivity [m2/s]
258.35 K | 0.1451 | –
258.52 K | 0.1449 | –
258.62 K | 0.1448 | –
258.89 K | – | 8.41e-08
259.3 K | – | 8.45e-08
259.56 K | – | 8.41e-08
264.66 K | 0.1428 | –
264.8 K | 0.1426 | –
264.89 K | 0.1424 | –
265.09 K | – | 7.72e-08
265.41 K | – | 7.72e-08
265.61 K | – | 7.69e-08
279.17 K | 0.138 | –
279.31 K | 0.1379 | –
279.41 K | 0.1378 | –
279.59 K | – | 7.36e-08
279.93 K | – | 7.41e-08
280.16 K | – | 7.41e-08
296.25 K | 0.1334 | –
296.51 K | 0.1332 | –
296.69 K | 0.1331 | –
297.24 K | – | 8.95e-08
297.94 K | – | 8.98e-08
298.42 K | – | 8.98e-08
313.95 K | 0.1278 | –
314.22 K | 0.1276 | –
314.41 K | 0.1275 | –
314.96 K | – | 8.51e-08
315.67 K | – | 8.53e-08
316.17 K | – | 8.51e-08
328.56 K | 0.1232 | –
328.84 K | 0.1231 | –
329.08 K | 0.1231 | –
329.6 K | – | 8.17e-08
330.32 K | – | 8.17e-08
330.99 K | – | 8.19e-08

Cc1cccc(C)c1 [1,3-dimethylbenzene]
Settings | thermal conductivity [W/m/K] | thermal diffusivity [m2/s]
258.17 K | 0.1393 | –
258.42 K | 0.1391 | –
258.58 K | 0.1391 | –
259.01 K | – | 9.79e-08
259.67 K | – | 9.79e-08
260.12 K | – | 9.82e-08
275.04 K | 0.1353 | –
275.28 K | 0.1353 | –
275.44 K | 0.1352 | –
275.95 K | – | 9.46e-08
276.57 K | – | 9.45e-08
277 K | – | 9.44e-08
287.36 K | 0.1323 | –
287.6 K | 0.1322 | –
287.77 K | 0.132 | –
288.27 K | – | 9.16e-08
288.91 K | – | 9.19e-08
289.35 K | – | 9.17e-08
294.07 K | 0.1305 | –
294.32 K | 0.1305 | –
294.49 K | 0.1304 | –
294.99 K | – | 9.03e-08
295.64 K | – | 9.06e-08
296.09 K | – | 9.03e-08
311.74 K | 0.126 | –
312 K | 0.1259 | –
312.18 K | 0.1258 | –
312.68 K | – | 8.65e-08
313.34 K | – | 8.66e-08
313.8 K | – | 8.64e-08
328.79 K | 0.1218 | –
329.04 K | 0.1216 | –
329.22 K | 0.1215 | –
329.74 K | – | 8.28e-08
330.36 K | – | 8.22e-08
330.83 K | – | 8.22e-08

C1=CCC=CC1 [1,4-cyclohexadiene]
Settings | thermal conductivity [W/m/K] | thermal diffusivity [m2/s]
258.46 K | 0.1586 | –
258.67 K | 0.1584 | –
258.82 K | 0.1583 | –
259.36 K | – | 1.06e-07
259.93 K | – | 1.05e-07
260.35 K | – | 1.05e-07
264.86 K | 0.1564 | –
265.08 K | 0.1563 | –
265.23 K | 0.1562 | –
265.75 K | – | 1.04e-07
266.36 K | – | 1.04e-07
266.77 K | – | 1.04e-07
279.38 K | 0.1514 | –
279.6 K | 0.1512 | –
279.76 K | 0.1511 | –
280.29 K | – | 9.95e-08
280.9 K | – | 9.93e-08
281.33 K | – | 9.92e-08
296.2 K | 0.1455 | –
296.43 K | 0.1453 | –
296.6 K | 0.1452 | –
297.14 K | – | 9.5e-08
297.75 K | – | 9.45e-08
298.19 K | – | 9.45e-08
313.9 K | 0.1393 | –
314.13 K | 0.139 | –
314.31 K | 0.139 | –
314.86 K | – | 9.01e-08
315.48 K | – | 8.95e-08
315.93 K | – | 8.95e-08
328.51 K | 0.1343 | –
328.75 K | 0.1341 | –
328.93 K | 0.134 | –
329.48 K | – | 8.61e-08
330.11 K | – | 8.57e-08
330.58 K | – | 8.57e-08
